Experimental data as given in patent US20040186288A1, “3,5-Diamino-1,2,4-triazoles as kinase inhibitors” (priority 2001, published 2004).

Tests used:
[1] = biological target: KDR (VEGFR II) (Homo sapiens, UniProt P35968); test: KDR (VEGFR II) kinase assay; format: biochemical; conditions: poly-(Glu4Tyr) substrate, 33P-ATP, 10 minutes at room temperature
Experimental: (§1) KDR (VEGFR II) and Tie2 Assay
(§2) In a microtiter plate (without protein binding!) that tapers to a point, the solutions are mixed in the following sequence:
(§3) 10 μl of substrate mixture
(§4) 10 μl of inhibitor dilution
(§5) 10 μl of enzyme solution.
(§6) It is mixed thoroughly and incubated for 10 minutes at room temperature. Then, 10 μl of the stop solution is added, mixed, and 10 μl of the solution is transferred to a P 81, phosphocellulose filter. It is washed several times in 0.1 M phosphoric acid. The filter paper is dried, coated with Meltilex and measured in a microbeta. The IC50 values are determined from the inhibitor concentration that is necessary to inhibit the phosphate incorporation to 50% of the uninhibited incorporation after removal of the blank reading (EDTA-stopped reaction).
(§7) Substrate solvent: 10 mmol of DTT, 10 mmol of MnCl2, 100 mmol of MgCl2 (DTT slightly oxidized, frozen at −80° C.). Before the test, 1:10 diluted with H2O.
(§8) Enzyme solvent: 120 mmol of TrisCl, pH 7.5; 10 μmol of Na3VO4.
(§9) 10 μl of volume of ATP stock solution A+25 μCi γ-^33P-ATP (about 2.5 μl of stock solution B)+30 μl of poly-(Glu4Tyr) stock solution C+1.21 ml of substrate solvent
(§10) Substances corresponding to the dilutions, 3% DMSO in substrate solvent as a control
(§11) 11.25 μg of the enzyme stock solution (KDR and FLT-1 kinase and Tie2) are diluted at of enzyme solvent (other amounts in the case of other activity!).
(§12) Stop Solution: […] of EDTA, pH 7.0
(§13) Washing Solution: 0.5% phosphoric acid

[2] = biological target: T1, CDK2/CycE (Homo sapiens, UniProt P24941); test: CDK2/CycE kinase assay; format: biochemical; conditions: histone IIIS substrate, 0.5 μm ATP, 15 minutes at 22° C.
T1 construct: GST; purchased Dr. Dieter Marme, Klinik für Tumorbiologie, Freiburg (obtained from an outside laboratory, not a commercial vendor); host or cells: baculovirus-infected insect cells (Sf9)
Experimental: Recombinant CDK2- and CycE-GST-fusion proteins, purified from baculovirus-infected insect cells (Sf9), were obtained by Dr. Dieter Marme, Klinik für Tumorbiologie [Clinic for Tumor Biology], Freiburg. Histone IIIS, which was used as a kinase substrate, was purchased by the Sigma Company.
CDK2/CycE (50 ng/measuring point) was incubated for 15 minutes at 22° C. in the presence of various concentrations of test substances (0 μm, as well as within the range of 0.01-100 μm) in assay buffer [50 mmol of tris/HCl pH 8.0, 10 mmol of MgCl2, 0.1 mmol of Na ortho-vanadate, 1.0 mmol of dithiothreitol, 0.5 μm of adenosine triphosphate (ATP), 10 μg/measuring point of histone IIIS, 0.2 μCi/measuring point of ^33P-gamma ATP, 0.05% NP40, 12.5% dimethyl sulfoxide]. The reaction was stopped by adding EDTA solution (250 mmol, pH 8.0, 14 μl/measuring point).
From each reaction batch, 10 μl was applied to P30 filter strips (Wallac Company), and non-incorporated ^33P-ATP was removed by subjecting the filter strips to three washing cycles for 10 minutes each in 0.5% phosphoric acid. After the filter strips were dried for one hour at 70° C., the filter strips were covered with scintillator strips (MeltiLex™ A, Wallac Company) and baked for one hour at 90° C. The amount of incorporated ^33P (substrate phosphorylation) was determined by scintillation measurement in a gamma-radiation measuring device (Wallac).

[3] = biological target: Tie2 (Homo sapiens, UniProt Q02763); test: Tie2 kinase assay; format: biochemical; conditions: poly-(Glu4Tyr) substrate, 33P-ATP, 10 minutes at room temperature; read-out: Tie 2 IC50
Experimental: as §1, §2, §3, §4, §5, §6, §7, §8, §9, §10, §11, §12, §13

[4] = tested on: human MCF7 tumor cells; test: Proliferation assay (crystal violet); format: cell-based; conditions: 96 h, 4 days incubation, read-out: MCF-7 IC50
Experimental: Cultivated human MCF7 tumor cells were flattened out at a density of 5000 cells/measuring point in a 96-well multititer plate in 200 μl of the corresponding growth medium. After 24 hours, the cells of one plate (zero-point plate) were colored with crystal violet (see below), while the medium of the other plates was replaced by fresh culture medium (200 μl), to which the test substances were added in various concentrations (0 μm, as well as in the range of 0.01-30 μm; the final concentration of the solvent dimethyl sulfoxide was 0.5%). The cells were incubated for 4 days in the presence of test substances. The cell proliferation was determined by coloring the cells with crystal violet: the cells were fixed by adding 20 μl/measuring point of an 11% glutaric aldehyde solution for 15 minutes at room temperature. After three washing cycles of the fixed cells with water, the plates were dried at room temperature. The cells were colored by adding 100 μl/measuring point of a 0.1% crystal violet solution (the pH was set at 3 by adding acetic acid). After three washing cycles of the colored cells with water, the plates were dried at room temperature. The dye was dissolved by adding 100 μl/measuring point of a 10% acetic acid solution. The extinction was determined by photometry at a wavelength of 595 nm. The change of cell growth, in percent, was calculated by standardization of the measured values to the extinction values of the zero-point plate (=0%) and the extinction of the untreated (0 μm) cells (=100%).

Chain of KDR (VEGFR II) (P35968 20-1356, species assumed): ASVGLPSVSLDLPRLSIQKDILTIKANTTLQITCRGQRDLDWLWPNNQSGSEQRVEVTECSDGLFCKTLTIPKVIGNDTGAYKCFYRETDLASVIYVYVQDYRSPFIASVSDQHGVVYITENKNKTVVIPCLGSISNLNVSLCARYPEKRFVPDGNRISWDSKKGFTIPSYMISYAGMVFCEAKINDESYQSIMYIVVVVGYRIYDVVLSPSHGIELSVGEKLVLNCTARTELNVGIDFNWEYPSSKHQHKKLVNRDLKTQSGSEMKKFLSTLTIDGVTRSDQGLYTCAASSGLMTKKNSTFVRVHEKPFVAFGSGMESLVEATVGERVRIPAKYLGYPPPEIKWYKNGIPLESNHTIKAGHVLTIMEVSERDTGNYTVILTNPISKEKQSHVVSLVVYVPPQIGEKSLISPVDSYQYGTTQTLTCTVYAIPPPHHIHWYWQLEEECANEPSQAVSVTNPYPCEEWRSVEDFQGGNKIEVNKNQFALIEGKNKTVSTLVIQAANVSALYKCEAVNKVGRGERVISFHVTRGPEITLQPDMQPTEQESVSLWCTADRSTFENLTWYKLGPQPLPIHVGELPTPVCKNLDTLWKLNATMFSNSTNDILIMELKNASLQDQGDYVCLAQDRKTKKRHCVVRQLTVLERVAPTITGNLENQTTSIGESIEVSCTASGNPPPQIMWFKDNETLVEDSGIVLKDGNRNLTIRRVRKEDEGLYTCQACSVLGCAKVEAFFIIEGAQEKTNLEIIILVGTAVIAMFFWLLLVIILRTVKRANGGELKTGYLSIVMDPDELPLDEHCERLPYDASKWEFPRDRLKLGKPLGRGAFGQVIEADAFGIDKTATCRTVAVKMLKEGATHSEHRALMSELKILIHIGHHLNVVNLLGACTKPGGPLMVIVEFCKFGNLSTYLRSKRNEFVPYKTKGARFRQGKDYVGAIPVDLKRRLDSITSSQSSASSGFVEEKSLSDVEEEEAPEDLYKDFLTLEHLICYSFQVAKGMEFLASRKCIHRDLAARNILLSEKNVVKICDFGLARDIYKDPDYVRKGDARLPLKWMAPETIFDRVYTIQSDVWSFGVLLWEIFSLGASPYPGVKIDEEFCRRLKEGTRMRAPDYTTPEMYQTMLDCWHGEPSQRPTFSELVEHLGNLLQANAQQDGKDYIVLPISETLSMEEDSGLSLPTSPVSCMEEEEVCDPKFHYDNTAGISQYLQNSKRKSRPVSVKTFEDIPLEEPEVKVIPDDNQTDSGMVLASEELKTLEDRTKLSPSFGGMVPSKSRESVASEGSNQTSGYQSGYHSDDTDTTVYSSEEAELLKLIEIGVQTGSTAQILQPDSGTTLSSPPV
Chain of Tie2 (Q02763 23-1124, species assumed): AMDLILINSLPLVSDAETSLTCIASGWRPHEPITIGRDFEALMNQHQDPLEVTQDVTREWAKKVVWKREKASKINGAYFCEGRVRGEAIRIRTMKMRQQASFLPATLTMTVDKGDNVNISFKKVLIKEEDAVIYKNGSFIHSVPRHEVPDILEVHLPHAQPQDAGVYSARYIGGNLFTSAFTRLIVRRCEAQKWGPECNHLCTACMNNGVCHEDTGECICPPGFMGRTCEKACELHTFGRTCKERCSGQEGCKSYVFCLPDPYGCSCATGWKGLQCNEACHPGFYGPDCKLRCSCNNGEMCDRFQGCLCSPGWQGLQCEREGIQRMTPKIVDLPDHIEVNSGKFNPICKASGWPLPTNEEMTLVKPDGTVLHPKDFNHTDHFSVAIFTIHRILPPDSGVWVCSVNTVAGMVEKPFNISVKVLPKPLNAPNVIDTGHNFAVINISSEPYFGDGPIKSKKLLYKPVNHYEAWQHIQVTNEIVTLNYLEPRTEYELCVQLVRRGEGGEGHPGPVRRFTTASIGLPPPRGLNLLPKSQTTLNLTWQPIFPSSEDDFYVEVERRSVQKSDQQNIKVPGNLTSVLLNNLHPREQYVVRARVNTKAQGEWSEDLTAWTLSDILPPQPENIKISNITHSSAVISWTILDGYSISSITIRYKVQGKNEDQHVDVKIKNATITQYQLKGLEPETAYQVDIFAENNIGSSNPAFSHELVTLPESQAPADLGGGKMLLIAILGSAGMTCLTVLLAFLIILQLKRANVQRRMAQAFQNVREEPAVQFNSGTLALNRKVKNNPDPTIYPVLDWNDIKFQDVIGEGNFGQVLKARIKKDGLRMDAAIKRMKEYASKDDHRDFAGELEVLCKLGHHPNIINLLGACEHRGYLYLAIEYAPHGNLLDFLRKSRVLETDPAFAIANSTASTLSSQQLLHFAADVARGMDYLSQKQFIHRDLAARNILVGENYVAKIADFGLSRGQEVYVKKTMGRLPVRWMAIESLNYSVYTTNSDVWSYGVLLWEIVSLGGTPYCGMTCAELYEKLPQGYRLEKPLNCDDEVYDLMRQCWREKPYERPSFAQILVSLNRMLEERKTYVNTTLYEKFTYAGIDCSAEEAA

Structure (SMILES) | melting point | IC50 [1] | IC50 [2] | IC50 [3] | IC50 [4]
Nc1nc(Nc2cnccc2Cl)nn1-c1ccccn1 [Example 20] | 193 °C | – | – | – | –
Nc1nc(Nc2ccc3ccccc3n2)nn1-c1ccccn1 [Example 19] | 326 °C | – | – | – | –
Cc1cc(C(F)(F)F)cc(-n2nc(Nc3cccnc3)nc2N)n1 [Example 3] | 212 °C | 10 nM | 2000 nM | > 1000 nM | > 10000 nM
COc1ccc(Nc2nc(N)n(-c3ccccn3)n2)c(OC)n1 [Example 14] | 159 °C | – | – | – | –
Nc1nc(Nc2nccc3ccccc23)nn1-c1ccccn1 [Example 18] | 278 °C | – | – | – | –
Nc1nc(Nc2cnc3ccccc3c2)nn1-c1ccccn1 [Example 10] | 225 °C | 20 nM | 800 nM | 500 nM | 4000 nM
Cc1ccc(Nc2nc(N)n(-c3ccccn3)n2)c(C)n1 [Example 21] | 191 °C | – | – | – | –
Nc1nc(Nc2cnc3ncccc3c2)nn1-c1ccccn1 [Example 17] | 253 °C | 30 nM | 500 nM | > 1000 nM | 1500 nM
Nc1nc(Nc2cncc(Br)c2)nn1-c1ccccn1 [Example 15] | 285 °C | 40 nM | 300 nM | 500 nM | 1100 nM
Nc1nc(Nc2cncc3ccccc23)nn1-c1ccccn1 [Example 16] | 287 °C | 20 nM | 2800 nM | – | –
Nc1nc(Nc2cccnc2)nn1-c1ncccc1C(F)(F)F [Example 4] | 255 °C | 30 nM | 6000 nM | > 1000 nM | 6000 nM
COc1ncccc1Nc1nc(N)n(-c2ccccn2)n1 [Example 11] | 169 °C | – | – | – | –
Nc1nc(Nc2cccnc2)nn1-c1cccnc1 [Example 7] | 234 °C | – | – | – | –
Nc1nc(Nc2cccnc2)nn1-c1ccccn1 [Example 1, 5-Amino-1-(2-pyridinyl)-3-(3-pyridinylamino)-1H-1,2,4-triazole] | – | – | – | – | 1500 nM
COc1ccc(Nc2nc(N)n(-c3ccccn3)n2)cn1 [Example 9] | 237 °C | 50 nM | 1000 nM | 500 nM | > 10000 nM
Nc1nc(Nc2cnc3ccccc3c2)nn1-c1ccc2ccccc2n1 [Example 12] | 249 °C | – | – | – | –
Nc1nc(Nc2cccnc2)nn1-c1ccccc1 [Example 8] | 223 °C | – | – | – | –
Nc1nc(Nc2cccnc2)nn1-c1ccc(C(F)(F)F)cn1 [Example 6] | 254 °C | 200 nM | 2000 nM | > 1000 nM | 4000 nM
Nc1nc(Nc2cccnc2)nn1-c1nccc2ccccc12 [Example 13] | 246 °C | 20 nM | 200 nM | 500 nM | 700 nM
Nc1nc(Nc2cccnc2)nn1-c1ccc2ccccc2c1 [Example 5] | 247 °C | 10 nM | 400 nM | > 1000 nM | 2000 nM
